Test results taken from patent US20090155209A1, “NOVEL MACROCYCLIC INHIBITORS OF HEPATITIS C VIRUS REPLICATION” (priority 2007, published 2009).
pEC50, pIC50: −log10 of the molar value.

How the values were obtained:
NS3-NS4 [1] = target: T1, NS3-NS4 (Hepatitis C virus genotype 1a, UniProt P27958); test: NS3-NS4 activity, IC50 (Example 37, Table 8); type: biochemical
NS3-NS4 [2] = target: T1, NS3-NS4; test: cell-based; details: EC50, NS3-NS4 activity

T1 sequence (P27958 1027-1657): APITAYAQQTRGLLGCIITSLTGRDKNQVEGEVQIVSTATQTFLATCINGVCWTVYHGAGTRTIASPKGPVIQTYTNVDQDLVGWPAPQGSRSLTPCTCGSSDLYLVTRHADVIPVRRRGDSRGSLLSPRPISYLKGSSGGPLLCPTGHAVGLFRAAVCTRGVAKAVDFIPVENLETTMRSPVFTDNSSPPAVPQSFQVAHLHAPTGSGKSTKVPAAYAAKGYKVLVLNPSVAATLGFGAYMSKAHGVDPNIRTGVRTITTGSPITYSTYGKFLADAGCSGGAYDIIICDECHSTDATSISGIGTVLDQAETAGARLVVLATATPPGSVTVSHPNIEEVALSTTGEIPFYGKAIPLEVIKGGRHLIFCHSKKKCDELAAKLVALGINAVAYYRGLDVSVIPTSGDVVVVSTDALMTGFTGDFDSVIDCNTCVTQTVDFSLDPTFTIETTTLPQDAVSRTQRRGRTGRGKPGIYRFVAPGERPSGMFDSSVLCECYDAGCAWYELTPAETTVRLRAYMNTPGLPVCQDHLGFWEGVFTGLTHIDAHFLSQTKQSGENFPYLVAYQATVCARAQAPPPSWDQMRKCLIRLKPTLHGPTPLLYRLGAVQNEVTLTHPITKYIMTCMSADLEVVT
T1 sequence (P27958 1658-1711): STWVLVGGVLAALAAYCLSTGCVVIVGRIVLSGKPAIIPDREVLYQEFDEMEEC

Structure (SMILES) | pIC50 (NS3-NS4 [1]) | pEC50 (NS3-NS4 [2])
CC(C)(C)OC(=O)N[C@H]1CCCCC/C=C\[C@@H]2C[C@@]2(C(=O)NS(=O)(=O)c2ccccc2Cl)NC(=O)[C@@H]2C[C@@H](OC(=O)N3Cc4cccc(F)c4C3)CN2C1=O [Compound 332] | > 7.00 | > 7.00
CC(C)(C)OC(=O)N[C@H]1CCCCC/C=C\[C@@H]2C[C@@]2(C(=O)NS(=O)(=O)c2ccc(Cl)cc2)NC(=O)[C@@H]2C[C@@H](OC(=O)N3Cc4cccc(F)c4C3)CN2C1=O [Compound 333] | > 7.00 | > 7.00
O=C(N[C@H]1CCCCC/C=C\[C@@H]2C[C@@]2(C(=O)NS(=O)(=O)c2ccc(Cl)cc2)NC(=O)[C@@H]2C[C@@H](OC(=O)N3Cc4cccc(F)c4C3)CN2C1=O)OC1CCOC1 (stereo partly drawn) [Compound 334] | > 7.00 | > 7.00
O=C(N[C@H]1CCCCC/C=C\[C@@H]2C[C@@]2(C(=O)NS(=O)(=O)c2ccc(Cl)cc2)NC(=O)[C@@H]2C[C@@H](OC(=O)N3Cc4cccc(Cl)c4C3)CN2C1=O)OC1CCOCC1 [Compound 335] | > 7.00 | 6.00 to 7.00
CCC(C)(C)OC(=O)N[C@H]1CCCCC/C=C\[C@@H]2C[C@@]2(C(=O)NS(=O)(=O)c2ccc(Cl)cc2)NC(=O)[C@@H]2C[C@@H](OC(=O)N3Cc4cccc(F)c4C3)CN2C1=O [Compound 336] | > 7.00 | > 7.00
CCC(C)(C)OC(=O)N[C@H]1CCCCC/C=C\[C@@H]2C[C@@]2(C(=O)NS(=O)(=O)c2ccccc2C)NC(=O)[C@@H]2C[C@@H](OC(=O)N3Cc4cccc(F)c4C3)CN2C1=O [Compound 337] | > 7.00 | > 7.00
Cc1ccccc1S(=O)(=O)NC(=O)[C@@]12C[C@H]1/C=C\CCCCC[C@H](NC(=O)OC1CCC1)C(=O)N1C[C@H](OC(=O)N3Cc4cccc(F)c4C3)C[C@H]1C(=O)N2 [Compound 338] | > 7.00 | > 7.00
O=C(N[C@H]1CCCCC/C=C\[C@@H]2C[C@@]2(C(=O)NS(=O)(=O)c2ccc(Cl)cc2)NC(=O)[C@@H]2C[C@@H](OC(=O)N3Cc4cccc(F)c4C3)CN2C1=O)OC1CCC1 [Compound 339] | > 7.00 | > 7.00
CC(C)(C)COC(=O)N[C@H]1CCCCC/C=C\[C@@H]2C[C@@]2(C(=O)NS(=O)(=O)c2ccc(Cl)cc2)NC(=O)[C@@H]2C[C@@H](OC(=O)N3Cc4cccc(F)c4C3)CN2C1=O [Compound 340] | > 7.00 | > 7.00
CC(C)COC(=O)N[C@H]1CCCCC/C=C\[C@@H]2C[C@@]2(C(=O)NS(=O)(=O)c2ccc(Cl)cc2)NC(=O)[C@@H]2C[C@@H](OC(=O)N3Cc4cccc(F)c4C3)CN2C1=O [Compound 341] | > 7.00 | > 7.00
CC(C)COC(=O)N[C@H]1CCCCC/C=C\[C@@H]2C[C@@]2(C(=O)NS(=O)(=O)c2cc(Cl)sc2Cl)NC(=O)[C@@H]2C[C@@H](OC(=O)N3Cc4cccc(F)c4C3)CN2C1=O [Compound 342] | > 7.00 | > 7.00
CC(C)(C)COC(=O)N[C@H]1CCCCC/C=C\[C@@H]2C[C@@]2(C(=O)NS(=O)(=O)c2cc(Cl)sc2Cl)NC(=O)[C@@H]2C[C@@H](OC(=O)N3Cc4cccc(F)c4C3)CN2C1=O [Compound 343] | > 7.00 | > 7.00
CCC(C)(C)OC(=O)N[C@H]1CCCCC/C=C\[C@@H]2C[C@@]2(C(=O)NS(=O)(=O)c2cc(Cl)sc2Cl)NC(=O)[C@@H]2C[C@@H](OC(=O)N3Cc4cccc(F)c4C3)CN2C1=O [Compound 344] | > 7.00 | > 7.00
CC(C)(C)OC(=O)N[C@H]1CCCCC/C=C\[C@@H]2C[C@@]2(C(=O)NS(=O)(=O)c2ccccc2C(F)(F)F)NC(=O)[C@@H]2C[C@@H](OC(=O)N3Cc4cccc(F)c4C3)CN2C1=O [Compound 345] | > 7.00 | > 7.00
Cc1cc(F)ccc1S(=O)(=O)NC(=O)[C@@]12C[C@H]1/C=C\CCCCC[C@H](NC(=O)OC(C)(C)C)C(=O)N1C[C@H](OC(=O)N3Cc4cccc(F)c4C3)C[C@H]1C(=O)N2 [Compound 346] | > 7.00 | > 7.00
